From DBAASP come the findings set out here.

In brackets after ≈: the same amount, converted by molar mass. Several values for one entry are separate records, joined by “and”; a condition that tells them apart may be missing. Equal values may be shown once. Some results are limits rather than exact numbers.

Some test systems named below: Escherichia coli 078; Escherichia coli K88; Escherichia coli K99; Escherichia coli UB1005; Staphylococcus aureus.
Holding throughout (assay): ≥ marks a high value that may be exact or a test limit, other limits are often not marked, values filed in µg/mL are converted to µM
Assay [1] concerns Candida parapsilosis CGMCC 2.3989.
For assay [2], the system named is Candida tropicalis CGMCC 2.1975.
In assay [3] the test system is Pseudomonas aeruginosa ATCC 27853.
In assay [4] the test system is Salmonella enterica subsp. enterica serovar Pullorum ATCC 7913.
In assay [5] the test system is Salmonella enterica subsp. enterica serovar Typhimurium ATCC 14028.
Assay [6] concerns Salmonella enterica subsp. enterica serovar Typhimurium C77-31.
For assay [7], the system named is Staphylococcus aureus ATCC 25923.
Assay [8] concerns Staphylococcus aureus ATCC 43300.
The subject of assay [9] is Staphylococcus epidermidis ATCC 12228.
Assay [10] relates to Pseudomonas aeruginosa PAK.
Assay [11] concerns Streptococcus gordonii Challis DL1.
The subject of assay [12] is Streptococcus mitis ATCC 903.
Assay [13] relates to Streptococcus mutans UA159.
Assay [14] deals with Streptococcus sanguinis NY101.
Assay [15] has as its system Bacillus subtilis ATCC 6633.
The test system of assay [16] is Candida albicans ATCC 90028.
The test system of assay [17] is Escherichia coli ATCC 8739.
Assay [18] concerns Staphylococcus aureus ATCC 6538.
Assay [19] deals with Bacillus subtilis CMCC 63501.
Assay [20] concerns Salmonella typhimurium ATCC 7731.
Assay [21] relates to Staphylococcus aureus ATCC 29213.
For assay [22], the system named is Escherichia coli ATCC 25922.
Assay [23] has as its system Klebsiella pneumoniae ATCC 10031.
The subject of assay [24] is Micrococcus luteus ATCC 10240.
Assay [25] relates to Shigella dysenteriae ATCC 9752.
The test system of assay [26] is Staphylococcus aureus ATCC 6538P.

On to `CC[C@H](C)[C@H](NC(=O)[C@H](CCCN=C(N)N)NC(=O)[C@H](C)NC(=O)[C@H](C)N)C(=O)N[C@H](C(=O)N[C@@H](CC(C)C)C(=O)N[C@@H](CCCN=C(N)N)C(=O)N[C@@H](CC(C)C)C(=O)N[C@@H](CCCN=C(N)N)C(=O)N[C@@H](Cc1ccccc1)C(=O)N[C@@H](CCCN=C(N)N)C(N)=O)[C@@H](C)CC` [AARIILRLRFR], for which the MIC in [1] was determined as 4 µM (≈ 5.54 µg/mL); in assay [2], 4 µM (≈ 5.54 µg/mL); in the assay on Escherichia coli 078, 4 µM (≈ 5.54 µg/mL); in the assay on Escherichia coli K88 it was 4 µM (≈ 5.54 µg/mL); in the assay with Escherichia coli K99, 2 µM (≈ 2.77 µg/mL); with Escherichia coli UB1005 it was 4 µM (≈ 5.54 µg/mL). The MIC in assay [3] was determined as 8 µM (≈ 11.1 µg/mL); in assay [4], 4 µM (≈ 5.54 µg/mL); in assay [5], 4 µM (≈ 5.54 µg/mL); in [6] it was 4 µM (≈ 5.54 µg/mL); in assay [7] it was 2 µM (≈ 2.77 µg/mL); in [8] it was 2 µM (≈ 2.77 µg/mL). Moreover, the MIC in [9] was determined as 2 µM (≈ 2.77 µg/mL).

Turning to `CC[C@H](C)[C@H](NC(=O)[C@H](Cc1ccccc1)NC(=O)[C@H](Cc1cnc[nH]1)NC(=O)[C@H](CCCCN)NC(=O)[C@@H](NC(=O)[C@@H](N)Cc1ccccc1)[C@@H](C)CC)C(=O)N[C@@H](Cc1cnc[nH]1)C(=O)N[C@@H](CCCN=C(N)N)C(=O)N[C@@H](Cc1ccccc1)C(=O)NCC(=O)NCC(=O)NCC(=O)N[C@@H](CCCN=C(N)N)C(=O)N[C@@H](Cc1c[nH]c2ccccc12)C(=O)N[C@@H](CCCN=C(N)N)C(=O)N[C@@H](Cc1c[nH]c2ccccc12)C(=O)N[C@@H](CCCN=C(N)N)C(=O)N[C@@H](Cc1c[nH]c2ccccc12)C(=O)N[C@@H](Cc1ccccc1)C(N)=O` [FIKHFIHRFGGGRWRWRWF], the MIC is 24.1 µM (≈ 62.5 µg/mL) in [10]; 12.4 µM (≈ 32 µg/mL) in the assay with Staphylococcus aureus; 12.4 µM (≈ 32 µg/mL) in assay [11]; 12.4 µM (≈ 32 µg/mL) in assay [12]; 3.09 µM (≈ 8 µg/mL) in [13]; 12.4 µM (≈ 32 µg/mL) in assay [14].

As to `CC[C@H](C)[C@H](NC(=O)[C@H](Cc1ccccc1)NC(=O)[C@H](Cc1cnc[nH]1)NC(=O)[C@H](CCCCN)NC(=O)[C@@H](NC(=O)[C@@H](N)Cc1ccccc1)[C@@H](C)CC)C(=O)N[C@@H](Cc1cnc[nH]1)C(=O)N[C@@H](CCCN=C(N)N)C(=O)N[C@@H](Cc1ccccc1)C(=O)N[C@@H](CO)C(=O)NCC(=O)NCC(=O)N[C@@H](CC(C)C)C(=O)N[C@@H](CCC(N)=O)C(=O)N[C@@H](CC(C)C)C(=O)N[C@@H](CC(C)C)C(=O)N[C@@H](CCCCN)C(=O)N[C@@H](CCC(N)=O)C(=O)N[C@@H](CC(C)C)C(=O)N[C@@H](CC(C)C)C(=O)N[C@@H](CCCCN)C(=O)N[C@@H](CC(C)C)C(=O)N[C@@H](CC(C)C)C(=O)N[C@@H](CCCCN)C(=O)N[C@@H](CCC(N)=O)C(=O)N[C@@H](Cc1ccccc1)C(N)=O` [FIKHFIHRFSGGLQLLKQLLKLLKQF], the MIC in assay [10] came out at 10.1 µM (≈ 32 µg/mL); in the assay on Staphylococcus aureus, 10.1 µM (≈ 32 µg/mL); in assay [11], 2.54 µM (≈ 8 µg/mL); in [12], 19.8 µM (≈ 62.5 µg/mL); in [13], 5.07 µM (≈ 16 µg/mL); in assay [14], 10.1 µM (≈ 32 µg/mL).

As to `CC[C@H](C)[C@H](NC(=O)CN)C(=O)N[C@@H](Cc1ccccc1)C(=O)N[C@@H](CO)C(=O)N[C@@H](CC(C)C)C(=O)N[C@H](C(=O)N[C@@H](CCCCN)C(=O)NCC(=O)N[C@@H](C)C(=O)N[C@@H](C)C(=O)N[C@@H](CCCCN)C(=O)N[C@@H](CC(C)C)C(=O)N[C@H](C(=O)N[C@H](C(=O)N[C@@H](CCCCN)C(=O)N[C@H](C(=O)N[C@H](C(=O)N[C@@H](C)C(=O)N[C@@H](CCCCN)C(=O)N[C@@H](CCC(=O)O)C(=O)N[C@@H](C)C(=O)NCC(=O)N[C@@H](CCCCN)C(=O)N[C@H](C(=O)NCC(=O)N[C@@H](CC(C)C)C(=O)N[C@@H](CCC(=O)O)C(=O)N[C@@H](CC(C)C)C(=O)N[C@@H](CCSC)C(=O)N[C@@H](C)C(=O)N[C@H]1CSSC[C@@H](C(=O)O)NC(=O)[C@H](CCC(N)=O)NC(=O)[C@H](CC(N)=O)NC(=O)[C@H]([C@@H](C)O)NC(=O)[C@H](C(C)C)NC(=O)[C@H](CCCCN)NC1=O)[C@@H](C)O)C(C)C)[C@@H](C)O)[C@@H](C)O)[C@@H](C)CC)[C@@H](C)CC` [GIFSLIKGAAKLITKTVAKEAGKTGLELMACKVTNQC], the MIC in assay [15] is 6.3 µM (≈ 24.2 µg/mL); in assay [16], not below 100 µM; in assay [17], 12.5 µM (≈ 47.9 µg/mL); in assay [8], 25 µM (≈ 95.9 µg/mL); in [18], 3.1 µM (≈ 11.9 µg/mL).

For the compound `CC[C@H](C)[C@H](NC(=O)[C@H](C)NC(=O)[C@H](CCCCN)NC(=O)[C@H](Cc1ccc(O)cc1)NC(=O)[C@H](CC(C)C)NC(=O)[C@H](C)NC(=O)[C@@H](NC(=O)[C@@H](NC(=O)[C@H](CC(N)=O)NC(=O)[C@@H](NC(=O)[C@H](C)NC(=O)[C@@H](NC(=O)[C@@H]1CCCN1C(=O)[C@@H](NC(=O)[C@H](CC(C)C)NC(=O)[C@@H]1CCCN1C(=O)[C@H](Cc1c[nH]c2ccccc12)NC(=O)[C@H](Cc1ccccc1)NC(=O)[C@H](CCCN=C(N)N)NC(=O)[C@@H](N)CCCCN)C(C)C)C(C)C)[C@@H](C)CC)[C@@H](C)O)C(C)C)C(=O)N[C@@H](CCCN=C(N)N)C(=O)N[C@@H](CCCN=C(N)N)C(=O)N[C@@H](CCCCN)C(N)=O` [KRFWPLVPVAINTVALYKAIRRK], the MIC in [19] was 4 µM (≈ 11 µg/mL); against Escherichia coli UB1005, 4 µM (≈ 11 µg/mL); in [3], 4 µM and > 2 µM; in assay [5], 4 µM (≈ 11 µg/mL); in assay [20] it was 2 µM (≈ 5.48 µg/mL); in assay [21], 4 µM (≈ 11 µg/mL). The compound further came in with an MIC in [9] of 4 µM (≈ 11 µg/mL).

In the case of `CC(C)C[C@H](NC(=O)[C@H](Cc1c[nH]c2ccccc12)NC(=O)[C@H](CCCCN)NC(=O)[C@H](CC(C)C)NC(=O)[C@@H](N)CC(C)C)C(=O)N[C@@H](CCCCN)C(=O)N[C@@H](CCCCN)C(N)=O` [LLKWLKK], the MIC in assay [15] is not below 108 µM; in assay [22], more than 215 µM; in assay [23], not below 215 µM; in assay [24] it was 26.9 µM (≈ 25 µg/mL); in assay [3], more than 215 µM; in assay [5], more than 215 µM. Moreover, the MIC in assay [25] is not below 108 µM; in assay [26], not below 215 µM; in assay [9], more than 215 µM.

As for `CC[C@H](C)[C@H](NC(=O)[C@H](C)NC(=O)[C@@H](NC(=O)[C@H](CCCCN)NC(=O)[C@H](CCCCN)NC(=O)[C@H](Cc1cnc[nH]1)NC(=O)[C@@H](NC(=O)[C@H](CCCCN)NC(=O)[C@H](CS)NC(=O)[C@@H](NC(=O)[C@@H](NC(=O)[C@H](CCCN=C(N)N)NC(=O)[C@@H](NC(=O)[C@H](C)NC(=O)[C@H](CC(C)C)NC(=O)[C@H](CCCCN)NC(=O)[C@@H]1CCCN1)[C@@H](C)CC)[C@@H](C)CC)[C@@H](C)O)[C@@H](C)CC)C(C)C)C(=O)N[C@@H](CO)C(=O)N[C@H](C(=O)O)C(C)C` [PKLAIRITCKIHKKVAISV], the MIC in assay [17] is 30.2 µM (≈ 64 µg/mL); in assay [7], 121 µM (≈ 256 µg/mL).

What is called MIC is the least concentration at which growth counts as inhibited. High values mean a less susceptible organism, low ones a more susceptible organism.
